Source: patent US6534080B2, “Method for administering camptothecins via injection of pharmaceutical composition comprising coated particles of a camptothecin” (priority 2001, dated 2003)

Columns and labels:
[1] = tested on: A375 human melanoma xenografts; experiment: A375 human melanoma xenograft study 1 (tumor growth delay, toxicity); conditions: for share of mice with CR responses: q3d×4
Excerpt: The following study evaluates two intravenous formulations according to the present invention against human tumor xenografts in athymic nude mice. The study used the A375 human melanoma xenograft model to compare the in vivo antitumor efficacy of I.V. 9-nitro-camptothecin, in vehicles containing IDD-P which provides a particulate suspension of 9-nitro-camptothecin, and IDD-D which provides a droplet suspension of 9-nitro-camptothecin, to the efficacy of oral 9-nitro-camptothecin and intraperitoneal CAMPTOSAR®, HYCAMTIN®, and DTIC®.
In order to assess antitumor efficacy, groups of athymic nude mice (n=10) bearing ˜72-mg A375 melanomas were treated intravenously on the 5/2/5 schedule with 9-nitro-camptothecin in IDD-P at 3.0 mg/kg or 1.5 mg/kg and 9-nitro-camptothecin in IDD-D at 2.0 mg/kg or 1.0 mg/kg.
Husbandry: Female nude mice were 16 weeks of age (NCR-nufBr; Taconic Farms) for the A375 study. The mice were fed ad libitum water (reverse osmosis, 1 ppm Cl) and autoclaved Prolab NIH-31 M/5% Rodent Diet consisting of 18% protein, 5% fat, 6% fiber, and 8% ash. Mice were housed in static microisolators on a 12-hour light cycle at 21-22° C. (70-72° F.) and 40%-60% humidity.
Tumor Implantation: An A375 melanoma fragment (1 mm 3 ) was implanted subcutaneously in the flank of each nude mouse. When the tumors reached the 60-112 mg size range, the mice were sorted into treatment groups (on Day 1) such that the group mean tumor sizes ranged from 71.3 mg-72.5 mg. Estimated tumor weight was calculated using the formula: [formula]
Drug Formulations: IDD-P with a mean particle size of 0.07-0.06 mm and IDD-D with a mean particle size of 0.15 mm were prepared for the study by RTP Pharma Inc. For this, the 9-nitro-camptothecin suspensions were diluted with water and vehicle to provide doses of 3 mg/kg and 1.5 mg/kg in 33% IDD-P, and doses of 2 mg/kg and 1 mg/kg in 100% and 50% IDD-D, respectively. After dilution, 9-nitro-camptothecin suspensions were mixed thoroughly by gentle agitation and stored at 2-8° C. For its oral formulation, 9-nitro-camptothecin was dissolved in DMA (N,N-dimethylacetamide, SIGMA) and diluted with D5W to yield a final DMA concentration of 3%. CAMPTOSAR®, DTIC®, and HYCAMTIN® were obtained as the marketed drugs and solutions were prepared fresh on the day of dosing. CAMPTOSAR® (irinotecan, Pharmacia & Upjohn Company, 20 mg/ml) and DTIC® (dacarbazine, Bayer Corporation, 20 mg/ml) were diluted with D5W. HYCAMTIN® (topotecan, SmithKlein Beecham) was reconstituted with water at 1 mg/ml.
Treatments: Volumes of 0.20 ml per 20-g mouse, body-weight adjusted, were administered once daily. Tumor-bearing athymic nude mice were matched on Day 1 into 13 groups of ten animals and drug administration was initiated. The I.V. formulations of 9-nitro-camptothecin were given once daily on a 5/2/5 schedule as shown in the protocol summary shown in FIG. 4. Oral 9-nitro-camptothecin doses were given on a q3d×4 schedule (Days 1, 4, 8, and 11). Three reference drugs were administered I.P.: CAMPTOSAR® was given in three doses at weekly intervals (qwk×3); HYCAMTIN® was given in four doses at four-day intervals (q4d×4); and DTIC® was given in five consecutive daily doses (qd×5). The tumor growth control group for these reference treatments received no treatment (Group 1). The 9-nitro-camptothecin vehicle: 33.3% IDD-P, 100% IDD-D, and 3% DMA, was administered to vehicle control Groups 2-4, respectively.
Tumor Growth Endpoint: The tumor growth delay (TGD) method was used to assess efficacy. Tumor dimensions were measured twice weekly until the experiment was terminated on Day 62.

[2] = whole blood; cited from earlier work
[3] = human plasma, pH 7.4, 37° C.; cited from earlier work
[4] = target: human serum albumin (HSA) (Homo sapiens, UniProt P02768); conditions: PBS at pH 7.4; cited from earlier work
[5] = 2.0 mg/kg p.o., q3d×4, Group 13, Day 62
[6] = 4.0 mg/kg p.o., q3d×4, Group 12, Day 62

Sequence of human serum albumin (HSA) (P02768 25-609): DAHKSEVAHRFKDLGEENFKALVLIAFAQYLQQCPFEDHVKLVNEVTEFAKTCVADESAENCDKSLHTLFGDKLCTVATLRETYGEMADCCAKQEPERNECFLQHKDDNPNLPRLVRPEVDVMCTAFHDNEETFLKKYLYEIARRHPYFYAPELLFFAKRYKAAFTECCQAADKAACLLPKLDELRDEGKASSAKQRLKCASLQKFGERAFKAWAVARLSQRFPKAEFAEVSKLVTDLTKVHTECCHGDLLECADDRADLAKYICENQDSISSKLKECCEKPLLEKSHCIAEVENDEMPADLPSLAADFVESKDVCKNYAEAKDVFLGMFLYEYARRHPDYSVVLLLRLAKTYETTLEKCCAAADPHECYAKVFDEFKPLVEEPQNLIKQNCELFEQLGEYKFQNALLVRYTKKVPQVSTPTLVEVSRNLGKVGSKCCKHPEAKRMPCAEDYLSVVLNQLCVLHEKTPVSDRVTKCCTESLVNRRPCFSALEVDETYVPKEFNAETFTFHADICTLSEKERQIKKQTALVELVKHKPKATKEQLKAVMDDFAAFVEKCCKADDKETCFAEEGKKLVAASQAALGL

CN(C)/N=N/c1[nH]cnc1C(N)=O [DTIC®, dacarbazine]
toxic deaths ([1]; 150 mg/kg I.P., qd×5, Group 7, n=10): one and One

CC[C@@]1(O)C(=O)OCc2c1cc1n(c2=O)Cc2cc3ccccc3nc2-1 [camptothecin, 20(S)-camptothecin]
half-life of α-hydroxy lactone [2]: 22 min | half-life of α-hydroxy lactone ring opening [3]: 11 min

CC[C@@]1(O)C(=O)OCc2c1cc1n(c2=O)Cc2cc3c([N+](=O)[O-])cccc3nc2-1 [9-nitro-camptothecin in 3% DMA, 9-nitro-20(S)-camptothecin]
share of mice with CR responses ([1]; 2 mg/kg p.o.): 40% | CR responses [1, 5]: 4 | PR responses (printed RP) [1, 5]: 1 | SD/PD responses [1, 5]: 2 | 62-day survivors ([1]; 2.0 mg/kg p.o., q3d×4, Group 13, n=10): seven | share of mice with CR responses ([1]; 4 mg/kg p.o.): 40% | CR responses [1, 6]: 4 | SD/PD responses [1, 6]: 3 | 62-day survivors ([1]; 4.0 mg/kg p.o., q3d×4, Group 12, n=10): seven

CC[C@@]1(O)C(=O)OCc2c1cc1n(c2=O)Cc2cc3c(CN(C)C)c(O)ccc3nc2-1 [HYCAMTIN®, topotecan]
CR responses ([1]; 10 mg/kg I.P., q4d×4, Group 6, Day 62): single and one

CC[C@@](O)(C(=O)O)c1cc2n(c(=O)c1CO)Cc1cc3ccccc3nc1-2 [carboxylate form of camptothecin]
affinity for HSA of carboxylate form relative to α-hydroxy lactone form [4]: 150 fold

CCc1c2c(nc3ccc(OC(=O)N4CCC(N5CCCCC5)CC4)cc13)-c1cc3c(c(=O)n1C2)COC(=O)[C@]3(O)CC [CAMPTOSAR®, irinotecan]
CR responses ([1]; 100 mg/kg I.P., qwk×3, Group 5, Day 62): single and one
